The source of these data is US7247633B2, “Pyrimidine compounds and their use” (Biovitrum AB, priority 2000, dated 2007).

Molecules are shown by their SMILES. Structures can show the parent of a compound that is named as a salt.

One series deals with T1, human 5-HT2c receptor (Homo sapiens, UniProt P28335).
T1 construct: expressed in transfected cells
T1 sequence (P28335 33-458): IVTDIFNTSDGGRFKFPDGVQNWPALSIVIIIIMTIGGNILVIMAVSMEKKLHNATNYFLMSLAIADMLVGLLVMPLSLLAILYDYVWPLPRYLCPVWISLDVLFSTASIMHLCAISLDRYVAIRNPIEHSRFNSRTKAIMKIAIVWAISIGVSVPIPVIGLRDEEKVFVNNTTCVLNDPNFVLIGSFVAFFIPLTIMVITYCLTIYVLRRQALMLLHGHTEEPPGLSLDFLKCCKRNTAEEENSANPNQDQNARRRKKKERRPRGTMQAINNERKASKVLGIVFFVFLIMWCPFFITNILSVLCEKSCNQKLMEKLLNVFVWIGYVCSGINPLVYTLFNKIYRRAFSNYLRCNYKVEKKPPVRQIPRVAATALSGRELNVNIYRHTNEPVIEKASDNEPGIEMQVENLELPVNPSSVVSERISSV
Briefly: 5-HT2c receptor affinity assay (displacement of 3H-labelled 5-HT, Scintillation Proximity Assay). The note with it: membranes of HEK293 cells stably expressing human 5-HT2c receptor; 3H-5-HT; non-specific binding 5 μM mianserin. On the procedure: The 5-HT2c receptor affinity of compounds in the Examples was determined in competition experiments, where the ability of each compound in serial dilution to displace ^3H-labelled 5-HT, bound to membranes prepared from a transfected HEK293 cell line stably expressing the human 5-HT2c receptor protein, was monitored by Scintillation Proximity Assay technology. Non-specific binding was defined using 5 μM mianserin.

The conditions of series [1]: controlled studies; cited from earlier work.
The target of series [2] is T2, 5-HT2c receptor (Mus musculus, UniProt P34968).
T2 construct: mice that express the normal 5-HT2c receptor; host or cells: mice, in vivo
T2 sequence (P34968 33-459): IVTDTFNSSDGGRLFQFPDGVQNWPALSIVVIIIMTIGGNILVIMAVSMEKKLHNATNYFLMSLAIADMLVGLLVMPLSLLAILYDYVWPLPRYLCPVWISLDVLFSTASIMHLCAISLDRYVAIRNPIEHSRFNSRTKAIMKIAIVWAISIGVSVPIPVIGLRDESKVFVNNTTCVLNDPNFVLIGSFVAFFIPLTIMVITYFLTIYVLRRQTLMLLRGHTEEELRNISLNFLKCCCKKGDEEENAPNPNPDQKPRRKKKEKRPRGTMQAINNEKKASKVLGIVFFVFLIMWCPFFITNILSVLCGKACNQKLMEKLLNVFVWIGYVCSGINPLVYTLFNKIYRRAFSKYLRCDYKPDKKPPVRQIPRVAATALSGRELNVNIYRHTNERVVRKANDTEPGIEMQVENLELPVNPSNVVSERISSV
The note with it: mice that express the normal 5-HT2c receptor; cited from earlier work.

In series [3] the test system is 5-HT2c receptor. The note with it: mice expressing the mutated inactive form of the 5-HT2c receptor; cited from earlier work.
For series [4] the following is noted: obese subjects, after 2 weeks of treatment; cited from earlier work.

Usually melting point stands for the temperature, or range, at which the solid turns liquid. `c1cc2c(cc1COc1cncc(N3CCNCC3)n1)OCO2` (as salt: acetate) [Example 3, 2-(1,3-Benzodioxol-5-ylmethoxy)-6-(1-piperazinyl)pyrazine] gave a melting point of 124 to 127 °C.
In turn, `COc1cccc(COc2cncc(N3CCNCC3)n2)c1` (as salt: acetate) [Example 4, 2-[(3-Methoxybenzyl)oxy]-6-(1-piperazinyl)pyrazine] came in with a melting point of 111 to 113 °C.
On the same count and under the same terms, the result for `Fc1cc(F)cc(COc2cncc(N3CCNCC3)n2)c1` (as salt: acetate) [Example 6, 2-[(3,5-Difluorobenzyl)oxy]-6-(1-piperazinyl)pyrazine] reads 70 to 72 °C; that for `c1ccc(-c2ccc(COc3cncc(N4CCNCC4)n3)cc2)cc1` (as salt: acetate) [Example 7, 2-([1,1′-Biphenyl]-4-ylmethoxy)-6-(1-piperazinyl)pyrazine], 102 to 104 °C.
On the same count and under the same terms, in the case of `Clc1cccc(CCOc2cncc(N3CCNCC3)n2)c1` (as salt: acetate) [Example 8, 2-[2-(3-Chlorophenyl)ethoxy]-6-(1-piperazinyl)pyrazine] it was 118 to 119 °C; in that of `c1ccc2c(c1)CCCC2Oc1cncc(N2CCNCC2)n1` (centres unmarked) (as salt: acetate) [Example 9, 6-(1-Piperazinyl)-2-pyrazinyl 1,2,3,4-tetrahydro-1-naphthalenyl ether], 160 to 162 °C.
On the same count and under the same terms, in the case of `FC(F)(F)c1ccc(COc2cncc(N3CCNCC3)n2)cc1` (as salt: acetate) [Example 10, 2-(1-Piperazinyl)-6-{[4-(trifluoromethyl)benzyl]oxy}pyrazine] it was 84 to 85 °C.
In the case of `c1cncc(COc2cncc(N3CCNCC3)n2)c1` (as salt: acetate) [Example 11, 2-(1-Piperazinyl)-6-(3-pyridinylmethoxy)pyrazine], the melting point was 98 to 99 °C.
Same read-out and setting: the result for `c1cncc(CCOc2cncc(N3CCNCC3)n2)c1` (as salt: acetate) [Example 12, 2-(1-Piperazinyl)-6-[2-(3-pyridinyl)ethoxy]pyrazine] reads 90 to 91 °C.
The same measure, in the same setting: the result for `COc1ccccc1COc1cncc(N2CCNCC2)n1` (as salt: hydrochloride) [Example 5, 2-[(2-Methoxybenzyl)oxy]-6-(1-piperazinyl)pyrazine] reads 171 to 173 °C; that for `c1ccc(CCOc2cncc(N3CCNCC3)n2)cc1` (as salt: maleate) [Example 14, 2-(2-Phenylethoxy)-6-(1-piperazinyl)pyrazine], 166 to 168 °C; that for `c1ccc(COc2cncc(N3CCNCC3)n2)cc1` (as salt: maleate) [Example 20, 2-(Benzyloxy)-6-(1-piperazinyl)pyrazine], 155 to 156 °C.
The same measure, in the same setting: in the case of `c1ccc2c(c1)OCCC2Oc1cncc(N2CCNCC2)n1` (centres unmarked) (as salt: maleate) [Example 26, 2-(3,4-Dihydro-2H-chromen-4-yloxy)-6-(1-piperazinyl)pyrazine] it was 179.5 to 182 °C; in that of `c1ccc2c(c1)ccn2CCOc1cncc(N2CCNCC2)n1` (as salt: maleate) [Example 28, 2-[2-(1H-Indol-1-yl)ethoxy]-6-(1-piperazinyl)pyrazine], 160.5 to 163 °C; in that of `COc1cc(COc2cncc(N3CCNCC3)n2)cc(OC)c1` (as salt: maleate) [Example 68, 2-[(3,5-Dimethoxybenzyl)oxy]-6-(1-piperazinyl)pyrazine], 134 to 137 °C.
As for `COc1ccc(CCOc2cncc(N3CCNCC3)n2)cc1` (as salt: maleate) [Example 69, 2-[2-(4-Methoxyphenyl)ethoxy]-6-(1-piperazinyl)pyrazine], the melting point was in the range of 149 to 151 °C.
Broadly, the Ki is the equilibrium dissociation constant of an inhibitor or competing ligand from its target. Molecule `CC(Oc1cncc(N2CCNCC2)n1)c1cccc(F)c1` (centres unmarked) [Example 2, 2-[1-(3-Fluorophenyl)ethoxy]-6-(1-piperazinyl)pyrazine] had a Ki on human 5-HT2c receptor of 0.008 µM.
On the same count and under the same terms, the result for `c1cncc(CCOc2cncc(N3CCNCC3)n2)c1` [Example 12, 2-(1-Piperazinyl)-6-[2-(3-pyridinyl)ethoxy]pyrazine] reads 0.197 µM.
`c1coc(-c2cncc(N3CCNCC3)n2)c1` [Example 15, 2-(2-Furyl)-6-(1-piperazinyl)pyrazine] showed a Ki at human 5-HT2c receptor of 0.616 µM.
At human 5-HT2c receptor, `c1cc(OCc2cccs2)nc(N2CCNCC2)c1` [Example 18, 1-[6-(2-Thienylmethoxy)-2-pyridinyl]piperazine] returned a Ki of 0.092 µM.
Molecule `c1ccc(COc2cncc(N3CCNCC3)n2)cc1` [Example 20, 2-(Benzyloxy)-6-(1-piperazinyl)pyrazine] came in with a Ki at human 5-HT2c receptor of 0.028 µM.
On the same count and under the same terms, in the case of `FCCOc1cncc(N2CCNCC2)n1` [Example 23, 2-(2-Fluoroethoxy)-6-(1-piperazinyl)pyrazine] it was 0.478 µM.
`c1ccc2c(CCOc3cncc(N4CCNCC4)n3)c[nH]c2c1` [Example 29, 2-[2-(1H-Indol-3-yl)ethoxy]-6-(1-piperazinyl)pyrazine] yielded a melting point of 133 to 135 °C.
On human 5-HT2c receptor, `c1ccc(COc2ccnc(N3CCNCC3)n2)cc1` [Example 32, 4-(Benzyloxy)-2-(1-piperazinyl)pyrimidine] had a Ki of 0.048 µM.
With `Fc1ccc(COc2cncc(N3CCNCC3)n2)cc1` [Example 42, 2-[(4-Fluorobenzyl)oxy]-6-(1-piperazinyl)pyrazine], the melting point worked out at 183 °C.
Same read-out and setting: the result for `COc1cccc(CCOc2cncc(OC3CCNCC3)n2)c1` [Example 45, 2-[2-(3-Methoxyphenyl)ethoxy]-6-(4-piperidinyloxy)pyrazine] reads 86 to 87 °C.
The molecule `c1ccc(CCCCCOc2cncc(OC3CCNCC3)n2)cc1` [Example 48, 2-[(5-Phenylpentyl)oxy]-6-(4-piperidinyloxy)pyrazine] displayed a Ki on human 5-HT2c receptor of 0.037 µM.
As to `CCN[C@@H](C)Cc1cccc(C(F)(F)F)c1` [dexfenfluramine], in series [1], the weight reduction entry is “exhibited weight reduction”.
With `CNCCC(Oc1ccc(C(F)(F)F)cc1)c1ccccc1` (centres unmarked) [fluoxetine], the weight reduction result in series [1] is given as “exhibited weight reduction”.
With `Clc1cccc(N2CCNCC2)c1` [mCPP, m-chlorophenylpiperazine], the food intake result on 5-HT2c receptor [2] is “reduces food intake”; in the series with 5-HT2c receptor [3], “lacks activity”. Further, in series [4], the body weight entry is “slight but sustained reduction in body weight”.
